Broadly, the EC50 is the concentration at which the effect is half-maximal. A lower EC50 goes with a more potent agent.

Where only a bound is given, the exact number is not on record here.

We go through 3 compounds from patent US12421242B2, “Substituted tetrahydropyrrolo-pyridinone compounds and their use in treating medical conditions” (Karuna Therapeutics, Inc., priority 2022, dated 2025).

Experiment [1] relates to AMP-evoked hyperlocomotion. Kind of experiment: Amphetamine-evoked hyperlocomotion in rats (open field). To be noted: adult male Sprague Dawley rats; 0.5 mg/kg amphetamine s.c.; distance traveled during the last 60 minutes of the 90-minute session. The experiment is classed as in vivo. How it is done:
Compounds may be tested for ability to impact behavior activity of rats according to the following procedures. Animals: Adult male, Sprague Dawley rats (Envigo, Indianapolis, IN, USA) are housed in a colony maintained at 23° C. with 12 h light/dark cycles (lights on at 0600 hours). All animals weigh 290-330 g at the beginning of the study and are equally divided into 5 groups (n=8 per group) and received one of the treatment conditions listed below. Behavioral Procedures: Studies are conducted in MedAssociates open field chambers (27.3 cm×27.3 cm×20.3 cm, MedAssociates, St. Albans, VT) in which movement is automatically tracked and recorded by 16 beam arrays. The administration pretreatment of the test article is determined to coincide with Tmax at the time of the amphetamine-evoked session with optimal route of administration. All groups are subcutaneously treated with 0.5 mg/kg amphetamine (AMP). The test article is tested in three dose groups with a half-log increase between doses. […] Locomotor data (distance traveled) is recorded as 5-minute bins throughout the 90-minute session. […] Statistical Analysis: Spontaneous locomotion (prior to AMP administration) is calculated as the total distance traveled during the first 30 minutes of the experimental session. AMP-evoked responses are calculated as the total distance traveled during the last 60 minutes of the experimental session which commenced immediately after AMP administration. Locomotor data may be analyzed by a one-way ANOVA. When there is a significant overall ANOVA, post hoc comparisons may be made by Dunnett's test with statistical significance determined as p<0.05. […] Behavioral Procedures: Studies were conducted in MedAssociates open field chambers (27.3 cm×27.3 cm×20.3 cm, MedAssociates, St. Albans, VT) in which movement was automatically tracked and recorded by 16 beam arrays. Administration pretreatment of the test article was determined to coincide with Tmax at the time of the amphetamine-evoked session with optimal route of administration. […]

The next experiment addresses T1, rM4 receptors (Rattus norvegicus, UniProt P08485).
T1 construct: expressed in transfected cells; host or cells: CHO cells
T1 sequence (P08485 1-478): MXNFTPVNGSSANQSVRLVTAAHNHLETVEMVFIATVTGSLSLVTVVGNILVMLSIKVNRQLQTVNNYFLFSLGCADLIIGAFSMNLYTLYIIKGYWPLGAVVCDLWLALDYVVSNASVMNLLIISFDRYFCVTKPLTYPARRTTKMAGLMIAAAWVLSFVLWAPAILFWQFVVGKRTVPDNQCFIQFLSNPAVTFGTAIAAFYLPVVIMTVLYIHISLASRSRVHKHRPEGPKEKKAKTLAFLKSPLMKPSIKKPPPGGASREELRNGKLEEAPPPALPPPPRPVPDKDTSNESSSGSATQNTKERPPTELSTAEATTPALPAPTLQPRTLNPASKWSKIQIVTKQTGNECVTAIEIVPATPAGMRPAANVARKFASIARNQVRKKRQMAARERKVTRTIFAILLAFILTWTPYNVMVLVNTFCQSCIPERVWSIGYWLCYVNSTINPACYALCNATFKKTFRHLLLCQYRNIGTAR
Kind of experiment: Rat M4 PAM pERK assay. The format is cell-based. To be noted: PAM mode. Put shortly:
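CHO cells expressing hM4 or rM4 were serum-starved 4 h, then given compound (ten-point curve, 10 μM top, duplicate) with an EC20 of acetylcholine (10 nM final) for 5 min at 37° C. Phospho-ERK in lysates was detected by TR-FRET.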

In the case of `Cc1c2c(n(C)c(=O)c1Cl)CN(C(=O)c1cnn(C(F)(F)F)c1)[C@@H]2C` [Compound I-76, (R)-3-Chloro-1,4,5-trimethyl-6-(1-(trifluoromethyl)-1H-pyrazole-4-carbonyl)-1,5,6,7-tetrahydro-2H-pyrrolo[3,4-b]pyridin-2-one], in experiment [1], the “Dose Amount of Compound at which rats displayed a reduction in amphetamine-evoked hyperlocomotion activity” value is reported as 3.2 mg/kg. The compound also had an EC50 at rM4 receptors of 100 to 500 nM.

Regarding `Cc1c2c(n(C)c(=O)c1Cl)CN(C(=O)c1cnn(C(F)(F)F)c1)C2` [Compound I-1, 3-chloro-1,4-dimethyl-6-(1-(Trifluoromethyl)-1H-pyrazole-4-carbonyl)-1,5,6,7-tetrahydro-2H-pyrrolo[3,4-b]pyridin-2-one], the “Dose Amount of Compound at which rats displayed a reduction in amphetamine-evoked hyperlocomotion activity” value in experiment [1] was 32 mg/kg. This compound also returned an EC50 on rM4 receptors of 500 to 2000 nM.

Take `COc1c2c(n(C)c(=O)c1C)CN(C(=O)c1cnn(C(F)(F)F)c1)C2` [Compound I-87]: the “Dose Amount of Compound at which rats displayed a reduction in amphetamine-evoked hyperlocomotion activity” value in experiment [1] is listed as 32 mg/kg. Moreover, on rM4 receptors, the EC50 was greater than 2000 nM.
